Assay [1] addresses T1, Y113F PGRMC1 (progesterone receptor membrane component 1) (Homo sapiens, UniProt O00264, Y113F).
T1 construct: recombinant truncated human PGRMC1 (aa 43–195), His tag removed by thrombin
Put plainly: spectrophotometric hemin titration (A394), Hill fit. Type of assay: binding.

Assay [2] has as its target T2, PGRMC1 (progesterone receptor membrane component 1) (Homo sapiens, UniProt O00264).
T2 construct: recombinant truncated human PGRMC1 (aa 43–195), His tag removed by thrombin
Described as above. Type of assay: binding.

The values below come from paper PMC8591507, “Progesterone receptor membrane component 1 (PGRMC1) binds and stabilizes cytochromes P450 through a heme-independent mechanism” (The Journal of Biological Chemistry, 2021).

T2 sequence (O00264 43-195): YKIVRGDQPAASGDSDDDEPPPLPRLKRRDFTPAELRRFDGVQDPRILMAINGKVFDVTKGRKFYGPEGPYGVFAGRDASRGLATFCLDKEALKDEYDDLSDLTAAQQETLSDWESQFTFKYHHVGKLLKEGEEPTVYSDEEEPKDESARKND
T1 sequence (O00264 43-195 Y113F): as the sequence (O00264 43-195) above, with Y71F counted along it

For orientation: Kd means the constant that tells how readily two partners part at equilibrium. Take `C=CC1=C(C)C2=Cc3c(C=C)c(C)c4[n]3[Fe]([Cl])[n]3c(c(C)c(CCC(=O)O)c3=CC3=NC(=C4)C(C)=C3CCC(=O)O)=CC1=N2` [hemin]: the figures for the Kd in assay [1] and in assay [2] were 4.7 ± 0.42 µM and 4.9 ± 0.33 µM, respectively.
